Test results reported in US20220378923A1, “BET DEGRADER” (KYOWA KIRIN CO., LTD., priority 2019, published 2022).

System: DCAF16 KO SU-DHL-4 cells
Assay: Inhibitory effect on cell viability using SU-DHL-4 DCAF16 knock out (KO) cell line (Test Example 6)
Type: cell-based, human
Conditions: for Activity Attenuation Ratio: (SU-DHL-4 DCAF16 KO IC50)/(SU-DHL-4 WT IC50); for IC50: DCAF16 KO SU-DHL-4 cells, 72 hours, Cell Counting Kit-8, 50% inhibition of cell viability
In short: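 SU-DHL-4 DLBCL cells carrying lentiviral Cas9 plus DCAF16-targeting sgRNA (three KO strains; non-targeting control strain), seeded 2000 cells/well, pre-cultured 18–25 h, then given 9-step compound dilutions (0.1% DMSO final) for 72 h at 37° C. Viability read by CCK-8 colorimetric assay.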

| IC50 [nM] | IC50 (Homo sapiens) [nM] | SMILES | Activity Attenuation Ratio |
| --- | --- | --- | --- |
| 63 |  | CCC(=O)N1c2ccccc2[C@H](Nc2ccc(NC(=O)CCCC(=O)Nc3ccc(Cn4c(C(=O)OCCN(C)C)cc5c4CCCC5=O)cc3)cc2)C[C@@H]1C [Compound 15a, 2-(Dimethylamino)ethyl 1-(4-(5-((4-(((2S,4R)-2-methyl-1-propionyl-1,2,3,4-tetrahydroquinolin-4-yl)amino)phenyl)amino)-5-oxopentanamide)benzyl)-4-oxo-4,5,6,7-tetrahydro-1H-indole-2-carboxylate] | 225 |
|  | 858 | CCC(=O)N1c2ccccc2[C@H](Nc2ccc(-c3cnn(CCNC(=O)c4ccc(Cn5c(C(=O)OCCN(C)C)cc6c5CCCC6=O)cc4)c3)cc2)C[C@@H]1C [Compound 15d, 2-(Dimethylamino)ethyl 1-(4-((2-(4-(4-(((2S,4R)-2-methyl-1-propionyl-1,2,3,4-tetrahydroquinolin-4-yl)amino)phenyl)-1H-pyrazol-1-yl)ethyl)carbamoyl)benzyl)-4-oxo-4,5,6,7-tetrahydro-1H-indole-2-carboxylate] | 7994 |
|  | 28.3 | CCC(=O)N1c2ccccc2[C@H](Nc2ccc(-n3cc(CNC(=O)c4ccc(Cn5c(CC)cc6c5CCCC6=O)cc4)nn3)cc2)C[C@@H]1C [Compound 15f, 4-((2-Ethyl-4-oxo-4,5,6,7-tetrahydro-1H-indol-1-yl)methyl)-N-((1-(4-(((2S,4R)-2-methyl-1-propionyl-1,2,3,4-tetrahydroquinolin-4-yl)amino)phenyl)-1H-1,2,3-triazol-4-yl)methyl)benzamide] | 902 |
| 106 |  | CCC(=O)N1c2ccccc2[C@H](Nc2ccc(NC(=O)CCCC(=O)Nc3cccc(Oc4ccc(NS(=O)(=O)CC)cc4-c4cn(C)c(=O)cc4OC)c3)cc2)C[C@@H]1C [Compound 16j, N^1-(3-(4-(Ethylsulfonamide)-2-(4-methoxy-1-methyl-6-oxo-1,6-dihydropyridin-3-yl)phenoxy)phenyl)-N5-(4-(((2S,4R)-2-methyl-1-propionyl-1,2,3,4-tetrahydroquinolin-4-yl)amino)phenyl)glutaramide] | 213 |
|  | 208 | CCC(=O)N1c2ccccc2[C@H](Nc2ccc(NC(=O)CCCC(=O)Nc3cccc(Oc4ccccc4-c4cn(C)c(=O)cc4OC)c3)cc2)C[C@@H]1C [Compound 16m, N^1-(3-(2-(4-Methoxy-1-methyl-6-oxo-1,6-dihydropyridin-3-yl)phenoxy)phenyl)-N5-(4-(((2S,4R)-2-methyl-1-propionyl-1,2,3,4-tetrahydroquinolin-4-yl)amino)phenyl)glutaramide] | 338 |
|  | 2400 | CCC(=O)N1c2ccccc2[C@H](Nc2ccc(NC(=O)CCCC(=O)Nc3ccc(C(=O)N4CCC(=O)Nc5ccccc54)cc3)cc2)C[C@@H]1C [Compound 16o, N^1-(4-(((2S,4R)-2-Methyl-1-propionyl-1,2,3,4-tetrahydroquinolin-4-yl)amino)phenyl)-N5-(4-(4-oxo-2,3,4,5-tetra hydro-1H-benzo[b][1,4]diazepine-1-carbonyl)phenyl)glutaramide] | 96 |
| 925 |  | CCC(=O)N1c2ccccc2[C@H](Nc2ccc(NC(=O)CCCC(=O)NC3CCC(Cn4cc(-c5c(C)noc5C)ccc4=O)CC3)cc2)C[C@@H]1C (stereo partly drawn) [Compound 16p, N^1-((1r,4r)-4-((5-(3,5-Dimethylisoxazol-4-yl)-2-oxopyridin-1(2H)-yl)methyl)cyclohexyl)-N5-(4-(((2S,4R)-2-methyl-1-propionyl-1,2,3,4-tetrahydroquinolin-4-yl)amino)phenyl)glutaramide] | 3390 |
|  | 182 | CCC(=O)N1c2ccccc2[C@H](Nc2ccc(NC(=O)CCCC(=O)Nc3ccc(Cn4cc(-c5c(C)noc5C)ccc4=O)cc3)cc2)C[C@@H]1C [Compound 17a, N^1-(4-((5-(3,5-Dimethylisoxazol-4-yl)-2-oxopyridin-1(2H)-yl)methyl)phenyl)-N5-(4-(((2S,4R)-2-methyl-1-propionyl-1,2,3,4-tetrahydroquinolin-4-yl)amino)phenyl)glutaramide] | 1895 |
| 75.7 |  | Cc1sc2c(c1C)C(c1ccc(Cl)cc1)=N[C@@H](CC(=O)NCCOCCOCCOCCOCCOCCOCCOCCNC(=O)C[C@@H]1N=C(c3ccc(Cl)cc3)c3c(sc(C)c3C)-n3c(C)nnc31)c1nnc(C)n1-2 [compound 2, reference compound] | 0.32 |

| SMILES | IC50 [nM] | IC50 (Homo sapiens) [nM] | Activity Attenuation Ratio |
| --- | --- | --- | --- |
| CCNC(=O)C[C@@H]1N=C(c2ccc(SCCCCSc3ccc(C4=N[C@@H](CC(=O)NCC)c5nnc(C)n5-c5ccc(OC)cc54)cc3)cc2)c2cc(OC)ccc2-n2c(C)nnc21 [compound 1, 2,2′-((4S,4'S)-6,6′-((butane-1,4-diylbis(sulfanediyl))bis(4,1-phenylene))bis(8-methoxy-1-methyl-4H-benzo[f][1,2,4]triazolo[4,3-a][1,4]diazepine-6,4-diyl))bis(N-ethylacetamide), reference compound] | 49.2 |  | 0.23 |
